A short description of data set [1]: Solubility of Compound 1 in 95% ethanol solution containing 2-hydroxypropyl-β-cyclodextrin (HPLC). To be noted: organic solvent or mixture, thermodynamic from solid, stirred 72 hours. It is filed as physicochemical. As to the method: 5 g of 1-(4-t-butylbenzyl)-3-(3-fluoro-4-methanesulfonylaminobenzyl)thiourea (Compound 1) was added to 100 ml of 95% ethanol solution containing 0, 1.0, 2.0, 5.0, 10.0 or 20.0 w/v % of 2-hylroxypropyl-β-cyclodextrin, and the mixture was stirred for 72 hours and then filtered through a 0.2 micrometer filter paper. The concentration of Compound 1 in the filtrate was determined by high performance liquid chromatography (HPLC) and the solubility of Compound 1 depending on the concentration of 2-hydroxypropyl-β-cyclodextrin is presented in Table 4.

Data set [2] in a line: Solubility of Compound 1 in aqueous 2-hydroxypropyl-β-cyclodextrin solutions (HPLC). The class given is physicochemical. To be noted: aqueous 2-hydroxypropyl-β-cyclodextrin solution, thermodynamic from solid, stirred 72 hours. As to the method: 0.4 g of 1-(4-t-butylbenzyl)-3-(3-fluoro-4-methanesulfonylaminobenzyl)thiourea (Compound 1) was added to each 10 ml of 0, 1.5, 3.5, 7.0, 14.0 and 28.0 w/v % aqueous solutions of 2-hydroxypropyl-β-cyclodextrin. The resulting mixture was stirred for 72 hours, filtered through a 0.2 micrometer filter paper. The concentration of Compound 1 in the filtrate was determined by high performance liquid chromatography (HPLC) and the solubility of Compound 1 depending on the concentration of 2-hydroxypropyl-β-cyclodextrin is presented in Table 1.

A short description of data set [3]: Test for pharmacokinetics after oral administration to rats. The class given is in vivo. The conditions noted are these: orally administered, 10 mg/kg. The source says: 1-(4-t-Butylbenzyl)-3-(3-fluoro-4-methanesulfonylaminobenzyl)thiourea (Compound 1) and the liquid formulation prepared in Formulation Example 3 were each orally administered to rats, and the changes in the plasma drug concentration were monitored according to a set time schedule. Each experimental animal group consisted of four male rats. After the rats were anesthetized with ether and operated for inserting a PE-50 polyethylene tube into the femoral artery, the suspension of Compound 1 in 0.5% sodium carboxymethylcellulose solution and the liquid formulation of Formulation Example 3 were each orally administered to the rats. At 15, 30, 60, 120, 210, 300 and 480 minutes after the administration, 150 micro liter blood samples were taken from the rats. Each blood sample was centrifuged to separate plasma, which was then subjected to HPLC to determine the concentration of Compound 1 in plasma.

The nature of data set [4]: Comparative dissolution test (Paddle method, Korean pharmacopoeia). The class given is physicochemical. The conditions noted are these: water as release solvent, 37° C., 50 rpm, FIG. 1. As to the method: 1-(4-t-butylbenzyl)-3-(3-fluoro-4-methanesulfonylaminobenzyl)thiourea (Compound 1) and the tablet prepared in Formulation Example 2 were subjected to test in accordance with dissolution test method II (Paddle method) described in Korean pharmacopoeia using water as a release solvent.
3 ml samples were taken at a given time interval under the condition of 37° C. and 50 rpm, and filtered through a 0.45 micrometer filter. The concentration of Compound 1 in each sample was determined by HPLC.

The nature of data set [5]: Solubility of Compound 1 in 2-hydroxypropyl-β-cyclodextrin solution in glycine buffer (pH 10.5) (HPLC). The class given is physicochemical. The conditions noted are these: thermodynamic from solid, stirred 72 hours. As to the method: 0.4 g of 1-(4-t-butylbenzyl)-3-(3-fluoro-4-methanesulfonylaminobenzyl)thiourea (Compound 1) was added to each 10 ml of 0, 1.5, 3.5, 7.0, 14.0 and 28.0 w/v % 2-hydroxypropyl-β-cyclodextrin solution in glycine buffer (pH 10.5). The resulting mixture was stirred for 72 hours, filtered through a 0.2 micrometer filter paper.
The concentration of Compound 1 in the filtrate was determined by high performance liquid chromatography (HPLC) and the solubility of Compound 1 depending on the concentration of 2-hylroxypropyl-β-cyclodextrin is presented in Table 2.

Experimental findings from patent US20070249720A1, “Thiourea Derivative-Containing Pharmaceutical Composition Having Improved Solubility and Bioavailability” (priority 2003, published 2007) are described below.

Each structure is given as a SMILES string. In brackets after ≈: the same amount, converted by molar mass.

For `CC(C)(C)c1ccc(CNC(=S)NCc2ccc(NS(C)(=O)=O)c(F)c2)cc1` [Compound 1, 1-(4-t-butylbenzyl)-3-(3-fluoro-4-methanesulfonylaminobenzyl)thiourea], the solubility – broadly, the concentration that dissolves in the medium under given conditions – at 72 h in data set [1] (0 w/v % 2-hydroxypropyl-β-cyclodextrin) came out at 19.7 mg/mL (≈ 46.6 mM); in data set [1] (1.0 w/v % 2-hydroxypropyl-β-cyclodextrin) it was 21.2 mg/mL (≈ 50.1 mM); in data set [1] (2.0 w/v % 2-hydroxypropyl-β-cyclodextrin), 22.7 mg/mL (≈ 53.5 mM); in data set [1] (5.0 w/v % 2-hydroxypropyl-β-cyclodextrin), 27.2 mg/mL (≈ 64.3 mM); in data set [1] (10.0 w/v % 2-hydroxypropyl-β-cyclodextrin), 34.1 mg/mL (≈ 80.6 mM); in data set [1] (20.0 w/v % 2-hydroxypropyl-β-cyclodextrin), 43.5 mg/mL (≈ 103 mM). Moreover, the solubility at 72 h was 400 µg/mL (≈ 0.944 mM) in data set [2] (aqueous with cosolvent or surfactant or cyclodextrin, 1.5 w/v % 2-hydroxypropyl-β-cyclodextrin); 1040 µg/mL (≈ 2.46 mM) in data set [2] (aqueous with cosolvent or surfactant or cyclodextrin, 3.5 w/v % 2-hydroxypropyl-β-cyclodextrin); 4180 µg/mL (≈ 9.87 mM) in data set [2] (aqueous with cosolvent or surfactant or cyclodextrin, 7.0 w/v % 2-hydroxypropyl-β-cyclodextrin); 12200 µg/mL (≈ 28.9 mM) in data set [2] (aqueous with cosolvent or surfactant or cyclodextrin, 14.0 w/v % 2-hydroxypropyl-β-cyclodextrin); 29000 µg/mL (≈ 68.4 mM) in data set [2] (aqueous with cosolvent or surfactant or cyclodextrin, 28.0 w/v % 2-hydroxypropyl-β-cyclodextrin); 10 µg/mL (≈ 0.0236 mM) in data set [2] (water, 0 w/v % 2-hydroxypropyl-β-cyclodextrin). Moreover, the solubility at 72 h in data set [5] (pH 10.5, aqueous buffer, 0 w/v % 2-hydroxypropyl-β-cyclodextrin) stood at 50 µg/mL (≈ 0.118 mM); in data set [5] (pH 10.5, aqueous with cosolvent or surfactant or cyclodextrin, 1.5 w/v % 2-hydroxypropyl-β-cyclodextrin) it was 2700 µg/mL (≈ 6.37 mM); in data set [5] (pH 10.5, aqueous with cosolvent or surfactant or cyclodextrin, 3.5 w/v % 2-hydroxypropyl-β-cyclodextrin), 4800 µg/mL (≈ 11.3 mM); in data set [5] (pH 10.5, aqueous with cosolvent or surfactant or cyclodextrin, 7.0 w/v % 2-hydroxypropyl-β-cyclodextrin), 9620 µg/mL (≈ 22.7 mM); in data set [5] (pH 10.5, aqueous with cosolvent or surfactant or cyclodextrin, 14.0 w/v % 2-hydroxypropyl-β-cyclodextrin) it was 18000 µg/mL (≈ 42.5 mM); in data set [5] (pH 10.5, aqueous with cosolvent or surfactant or cyclodextrin, 28.0 w/v % 2-hydroxypropyl-β-cyclodextrin), 32500 µg/mL (≈ 76.7 mM). Besides, the bioavailability – broadly, the share of a dose that reaches the circulation, judged against a reference dose that is usually intravenous – in data set [3] (male, rat, plasma, po, read-out: BA: Bioavailability) came out at 16.5%. Also, in data set [3] (male, rat, plasma, po, read-out: Cmax: Maximum plasma concentration), the Cmax came to 670 ng/mL. Besides, the Tmax in data set [3] (male, rat, plasma, po, read-out: Tmax: Time at the maximum plasma concentration) was 30 min. The “AUC: Area under the plasma concentration vs. time curve till 24 hours” value in data set [3] came to 2.79 microgram · h/ml. Also, the “percent dissolution of drug” value in data set [4] is “insoluble in water”.
